For 18 molecules, IC50 results are on record in US20250361230A1, “LATS Inhibitors and Uses Thereof” (The USA, as Represented by the Secretary, Dept. of Heath …, priority 2022, published 2025).

What all share (format): biochemical
The target in one experiment is T1, LATS1 (Homo sapiens, UniProt O95835).
T1 sequence (O95835 1-1130): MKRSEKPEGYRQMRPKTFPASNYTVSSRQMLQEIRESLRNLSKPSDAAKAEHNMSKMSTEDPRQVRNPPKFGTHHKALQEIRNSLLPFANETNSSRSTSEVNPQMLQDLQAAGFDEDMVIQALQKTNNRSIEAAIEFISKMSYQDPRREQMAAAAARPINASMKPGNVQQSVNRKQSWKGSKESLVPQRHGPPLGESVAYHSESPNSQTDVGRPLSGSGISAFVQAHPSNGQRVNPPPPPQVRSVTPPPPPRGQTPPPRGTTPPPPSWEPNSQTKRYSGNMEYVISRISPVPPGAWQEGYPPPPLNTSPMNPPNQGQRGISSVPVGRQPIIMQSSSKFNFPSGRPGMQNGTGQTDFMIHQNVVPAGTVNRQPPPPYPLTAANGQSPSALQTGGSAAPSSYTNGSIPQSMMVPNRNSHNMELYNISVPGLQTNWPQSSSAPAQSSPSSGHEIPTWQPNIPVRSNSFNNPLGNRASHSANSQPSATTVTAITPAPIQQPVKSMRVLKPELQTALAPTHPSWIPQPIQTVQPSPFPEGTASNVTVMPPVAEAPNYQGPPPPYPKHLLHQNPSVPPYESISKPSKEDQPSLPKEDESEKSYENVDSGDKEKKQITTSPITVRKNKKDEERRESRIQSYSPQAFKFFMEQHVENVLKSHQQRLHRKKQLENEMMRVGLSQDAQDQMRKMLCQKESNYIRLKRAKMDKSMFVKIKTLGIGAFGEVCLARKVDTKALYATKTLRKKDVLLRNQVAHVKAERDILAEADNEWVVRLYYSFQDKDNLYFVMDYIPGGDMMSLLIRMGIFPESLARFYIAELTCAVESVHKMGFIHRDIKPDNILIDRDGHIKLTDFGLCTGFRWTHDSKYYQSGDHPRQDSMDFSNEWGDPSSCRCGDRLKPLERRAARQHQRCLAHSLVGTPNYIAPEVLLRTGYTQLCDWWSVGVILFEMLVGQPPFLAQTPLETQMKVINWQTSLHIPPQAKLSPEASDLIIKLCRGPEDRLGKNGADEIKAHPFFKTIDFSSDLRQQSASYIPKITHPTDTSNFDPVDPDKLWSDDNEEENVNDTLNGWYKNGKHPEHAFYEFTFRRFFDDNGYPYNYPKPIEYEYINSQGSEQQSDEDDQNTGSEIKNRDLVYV
In words: RBC HotSpot kinase assay (33P-ATP, P81 filter-binding), LATS1. The conditions noted are these: Table 28, biochemical kinase assay; read-out: LATS1 IC50. An outline of the steps:
(§1)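 Compounds were run as single 10-point titrations to give IC50 values in nM. Each kinase was mixed with substrate and cofactors in 20 mM Hepes pH 7.5 reaction buffer with 1% DMSO, then exposed to compound for 20 min. 33P-ATP was added for a 2 h room-temperature reaction, with activity measured by P81 filter binding.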

For a further experiment, the target named is T2, LATS2 (Homo sapiens, UniProt Q9NRM7).
T2 sequence (Q9NRM7 1-1088): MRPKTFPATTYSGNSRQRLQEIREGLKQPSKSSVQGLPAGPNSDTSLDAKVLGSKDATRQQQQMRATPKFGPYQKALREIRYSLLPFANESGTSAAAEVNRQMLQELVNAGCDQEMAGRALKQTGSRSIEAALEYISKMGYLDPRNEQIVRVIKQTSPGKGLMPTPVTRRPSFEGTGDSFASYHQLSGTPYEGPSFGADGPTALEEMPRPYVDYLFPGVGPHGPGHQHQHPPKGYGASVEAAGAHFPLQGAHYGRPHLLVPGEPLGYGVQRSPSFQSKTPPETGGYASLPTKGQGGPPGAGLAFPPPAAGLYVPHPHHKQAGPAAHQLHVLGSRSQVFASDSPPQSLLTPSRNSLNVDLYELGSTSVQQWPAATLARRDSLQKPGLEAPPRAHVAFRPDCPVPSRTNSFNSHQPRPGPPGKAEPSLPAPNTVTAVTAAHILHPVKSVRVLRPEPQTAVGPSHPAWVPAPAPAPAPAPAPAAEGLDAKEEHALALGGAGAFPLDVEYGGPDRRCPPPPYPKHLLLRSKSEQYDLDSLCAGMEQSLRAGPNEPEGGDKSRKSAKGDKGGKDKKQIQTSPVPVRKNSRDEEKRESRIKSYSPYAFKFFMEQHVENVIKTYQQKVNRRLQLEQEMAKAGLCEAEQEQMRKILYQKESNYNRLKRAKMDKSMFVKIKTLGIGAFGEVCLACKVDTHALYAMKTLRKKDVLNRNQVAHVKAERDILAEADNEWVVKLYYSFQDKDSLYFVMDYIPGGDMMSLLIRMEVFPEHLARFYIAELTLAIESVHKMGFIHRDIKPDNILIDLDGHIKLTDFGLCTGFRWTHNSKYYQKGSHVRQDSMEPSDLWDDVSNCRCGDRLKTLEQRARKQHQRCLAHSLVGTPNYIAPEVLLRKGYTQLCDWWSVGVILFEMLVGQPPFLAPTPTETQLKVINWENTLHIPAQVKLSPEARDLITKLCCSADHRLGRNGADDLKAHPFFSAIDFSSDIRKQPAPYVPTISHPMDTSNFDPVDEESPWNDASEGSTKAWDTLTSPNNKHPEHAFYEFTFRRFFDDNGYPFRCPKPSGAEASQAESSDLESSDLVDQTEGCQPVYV
In words: RBC HotSpot kinase assay (33P-ATP, P81 filter-binding), LATS2. The conditions noted are these: Table 28, biochemical kinase assay; read-out: LATS2 IC50. An outline of the steps: as §1

The next experiment has as its target AKT (Homo sapiens, UniProt P31749). As to the kind of experiment: RBC HotSpot kinase assay (33P-ATP, P81 filter-binding), AKT. The conditions noted are these: Table 28, biochemical kinase assay; read-out: AKT IC50. In short, it runs like this: as §1

Molecules are shown by their SMILES. Bounds are passed on as bounds.

Chain of AKT (P31749 whole entry): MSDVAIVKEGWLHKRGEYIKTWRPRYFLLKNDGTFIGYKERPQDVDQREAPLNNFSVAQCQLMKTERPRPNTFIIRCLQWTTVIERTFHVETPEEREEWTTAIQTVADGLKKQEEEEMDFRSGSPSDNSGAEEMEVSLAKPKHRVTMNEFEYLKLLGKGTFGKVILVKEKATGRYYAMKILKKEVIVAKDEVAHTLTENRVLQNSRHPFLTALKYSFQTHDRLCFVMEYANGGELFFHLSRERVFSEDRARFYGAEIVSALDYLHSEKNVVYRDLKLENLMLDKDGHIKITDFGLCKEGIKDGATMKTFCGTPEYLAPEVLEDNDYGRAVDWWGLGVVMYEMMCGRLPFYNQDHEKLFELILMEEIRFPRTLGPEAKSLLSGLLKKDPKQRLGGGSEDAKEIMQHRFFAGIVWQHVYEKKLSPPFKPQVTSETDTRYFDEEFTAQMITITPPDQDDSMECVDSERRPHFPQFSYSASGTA

In the case of `CN1CC(O)(c2ccc(-c3ccnc4[nH]cc(F)c34)cc2Cl)C1` [Compound 137, 3-(2-chloro-4-(3-fluoro-1H-pyrrolo[2,3-b]pyridin-4-yl)phenyl)-1-methylazetidin-3-ol], the IC50 worked out at 0.108 µM on LATS1, 0.35 µM on LATS2 and 1.18 µM on AKT.
Taken in the same sequence, the figures for `OC1(c2c(F)cc(-c3ccnc4[nH]cc(F)c34)cc2F)CC2(CN(C3COC3)C2)C1` [Compound 138, 6-(2,6-difluoro-4-(3-fluoro-1H-pyrrolo[2,3-b]pyridin-4-yl)phenyl)-2-(oxetan-3-yl)-2-azaspiro[3.3]heptan-6-ol] were 0.0664 µM, 0.117 µM and 2.71 µM.
In the case of `O=S1(=O)CCC(N2CC3(C2)CC(O)(c2c(F)cc(-c4ccnc5[nH]cc(F)c45)cc2F)C3)CC1` [Compound 140, 4-(6-(2,6-difluoro-4-(3-fluoro-1H-pyrrolo[2,3-b]pyridin-4-yl)phenyl)-6-hydroxy-2-azaspiro[3.3]heptan-2-yl)tetrahydro-2H-thiopyran 1,1-dioxide], the IC50 at LATS1 was 0.0568 µM; on LATS2 it was 0.12 µM; at AKT it was 1.58 µM.
Taken in the same sequence, the figures for `CC(C)(C)OC(=O)N1CCC(O)(c2ccc(-c3ccnc4[nH]ccc34)cc2)CC1` [Compound 141, tert-butyl 4-(4-(1H-pyrrolo[2,3-b]pyridin-4-yl)phenyl)-4-hydroxypiperidine-1-carboxylate] were 0.897 µM, 0.465 µM and greater than 10 µM.
For the molecule `O=C([C@@H]1CCCN1)N1CCC(O)(c2ccc(-c3ccnc4[nH]cc(F)c34)cc2)CC1` [Compound 143, (S)-3-fluoro-4-(4-(4-hydroxy-1-prolylpiperidin-4-yl)phenyl)-1H-pyrrolo[2,3-b]pyridine], the IC50 on LATS1 amounted to 0.026 µM; at LATS2, 0.012 µM; at AKT it was 1.46 µM.
Take `O=C([C@@H]1CCCN1)N1CC(O)(c2ccc(-c3ccnc4[nH]cc(F)c34)cc2Cl)C1` [Compound 144, (S)-4-(3-chloro-4-(3-hydroxy-1-prolylazetidin-3-yl)phenyl)-3-fluoro-1H-pyrrolo[2,3-b]pyridine]: the IC50 on LATS1 is 0.05 µM; on LATS2, 0.026 µM; on AKT, 2.77 µM.
The like results for `NCC(=O)N1CC2(C1)CC(O)(c1c(F)cc(-c3ccnc4[nH]cc(F)c34)cc1F)C2` [Compound 145, 2-amino-1-(6-(2,6-difluoro-4-(3-fluoro-1H-pyrrolo[2,3-b]pyridin-4-yl)phenyl)-6-hydroxy-2-azaspiro[3.3]heptan-2-yl)ethan-1-one] were, in that order, 0.0283 µM, 0.046 µM and 1.87 µM.
Taken in the same sequence, the figures for `c1cc(-c2ccc(C3CC4CCCC(C3)N4)cc2)c2cc[nH]c2n1` (stereo not drawn) [Compound 146, 4-(4-(9-azabicyclo[3.3.1]nonan-3-yl)phenyl)-1H-pyrrolo[2,3-b]pyridine] were 0.203 µM, 0.0948 µM and 2.46 µM.
As for `NCC(=O)N1CCC(c2ccc(-c3ccnc4[nH]cc(F)c34)cc2Cl)CC1` [Compound 148, 2-amino-1-(4-(2-chloro-4-(3-fluoro-1H-pyrrolo[2,3-b]pyridin-4-yl)phenyl)piperidin-1-yl)ethan-1-one], the IC50 was 0.0077 µM at LATS1, 0.0178 µM at LATS2 and 1.08 µM at AKT.
Consider `NCc1ccc(-c2cc(-c3ccnc4[nH]cc(F)c34)ccc2C2CCNCC2)cc1` [Compound 149, (5′-(3-fluoro-1H-pyrrolo[2,3-b]pyridin-4-yl)-2′-(piperidin-4-yl)-[1,1′-biphenyl]-4-yl)methanamine], for which the IC50 came out at 0.0043 µM on LATS1, 0.001 µM on LATS2 and 0.0673 µM at AKT.
Taken in the same sequence, the figures for `NC(=O)c1ccc(-c2cc(-c3ccnc4[nH]ccc34)ccc2C2CCNCC2)cc1` [Compound 150, 2′-(piperidin-4-yl)-5′-(1H-pyrrolo[2,3-b]pyridin-4-yl)-[1,1′-biphenyl]-4-carboxamide] were 0.0329 µM, 0.0259 µM and 0.967 µM.
Taken in the same sequence, the figures for `NCc1ccc(-c2cc(-c3ccnc4[nH]cc(Br)c34)ccc2C2CCNCC2)cc1` [Compound 151, (5′-(3-bromo-1H-pyrrolo[2,3-b]pyridin-4-yl)-2′-(piperidin-4-yl)-[1,1′-biphenyl]-4-yl)methanamine] were 0.0166 µM, 0.0151 µM and 0.17 µM.
On to `COC(=O)c1c[nH]c2nccc(-c3ccc(C4CCNCC4)c(-c4ccc(CN)cc4)c3)c12` [Compound 152, methyl 4-(4′-(aminomethyl)-6-(piperidin-4-yl)-[1,1′-biphenyl]-3-yl)-1H-pyrrolo[2,3-b]pyridine-3-carboxylate], for which the 50% inhibitory concentration (IC50) was found to be 0.0663 µM on LATS1, 0.0502 µM on LATS2 and 4.41 µM at AKT.
Taken in the same sequence, the figures for `c1ccc(-c2cc(-c3ccnc4[nH]ccc34)ccc2C2CCNCC2)cc1` [Compound 153, 4-(6-(piperidin-4-yl)-[1,1′-biphenyl]-3-yl)-1H-pyrrolo[2,3-b]pyridine] were 0.0152 µM, 0.0204 µM and 0.378 µM.
The like results for `c1cncc(-c2cc(-c3ccnc4[nH]ccc34)ccc2C2CCNCC2)c1` [Compound 154, 4-(4-(piperidin-4-yl)-3-(pyridin-3-yl)phenyl)-1H-pyrrolo[2,3-b]pyridine] were, in that order, 0.087 µM, 0.048 µM and 1.32 µM.
Taken in the same sequence, the figures for `NCc1ccc(-c2cc(-c3ccnc4[nH]ccc34)ccc2C2CCNCC2)cc1` [Compound 155, (2′-(piperidin-4-yl)-5′-(1H-pyrrolo[2,3-b]pyridin-4-yl)-[1,1′-biphenyl]-4-yl)methanamine] were 0.0043 µM, 0.001 µM and 0.068 µM.
Consider `CC(C)(C)Nc1cc(-c2ccnc3[nH]cc(F)c23)ccc1C1CCNCC1` [Compound 156, N-(tert-butyl)-5-(3-fluoro-1H-pyrrolo[2,3-b]pyridin-4-yl)-2-(piperidin-4-yl)aniline], for which the IC50 turned out to be 0.139 µM at LATS1, 0.121 µM at LATS2 and 1.12 µM on AKT.
Turning to `CC(C)(C)Nc1cc(-c2ccnc3[nH]ccc23)ccc1C1CCNCC1` [Compound 157, N-(tert-butyl)-2-(piperidin-4-yl)-5-(1H-pyrrolo[2,3-b]pyridin-4-yl)aniline], the IC50 stood at 0.216 µM on LATS1, 0.109 µM on LATS2 and 1.65 µM on AKT.
